Tests used:
anti-NMDAR encephalitis = assay: Case study: tramadol pre-treatment with therapeutic plasma exchange (PLEX) in a patient with anti-NMDAR encephalitis; assay type: in vivo, human
From the text: Described herein is a previously healthy person with newly diagnosed seizures and schizophrenia. […] At that time, they were started on solumedrol 1 g each day for five days along with the last two days of the steroid course being completed. […] Their anti-epileptic medications were escalated to include levetiracetam, phenobarbital, and lacosimide.
The assay used a semi-quantitative indirect immunofluorescence on human embryonic kidney cell cultures expressing recombinant NMDA receptors (transfected HEK 293 cells). […] NMDA receptor antibodies were not sent from their serum. […] Six days after their colectomy, PLEX was restarted for another five sessions.

[1] = oral formulation; Grond and Sablotzki 2004; cited from earlier work
[2] = Grond and Sablotzki 2004; cited from earlier work
[3] = PLEX in combination with tramadol 100 mg enterally three times a day

Compound: CNC1(c2ccccc2Cl)CCCCC1=O (stereo not shown) [ketamine]
- facial dyskinesias during the first three PLEX sessions (without tramadol) (anti-NMDAR encephalitis; ketamine at 20 mcg/kg/min, patient obtunded and not following commands): minimal improvement

Compound: C[C@H]1C[C@@H]2[C@H]([C@@H](O)C[C@@]3(C)[C@H]2CC[C@]3(O)C(=O)COC(=O)CCC(=O)O)[C@@]2(C)C=CC(=O)C=C12 [solumedrol]
- improvement of symptoms after steroid course (anti-NMDAR encephalitis; solumedrol 1 g each day for five days): failed to improve any of their symptoms

Compound: COc1cccc(C2(O)CCCCC2CN(C)C)c1 (stereo not shown) [tramadol, 2-(dimethylaminomethyl)-1-(3-methoxyphenyl)cyclohexanol]
- facial dyskinesias by the end of the fifth PLEX session (anti-NMDAR encephalitis; [3]): completely resolved
- following commands by the end of the third PLEX session (anti-NMDAR encephalitis; [3]): began to follow commands
- level of consciousness by the end of the fifth PLEX session (anti-NMDAR encephalitis; [3]): alert and awake enough to interact with their care providers
- overall safety and efficacy in anti-NMDAR encephalitis (anti-NMDAR encephalitis; conclusion of the case study): safe and an effective treatment
- recurrence of symptoms at follow up (anti-NMDAR encephalitis; nine months after symptoms onset): has not had any recurrent symptoms
- facial dyskinesias after the first PLEX session (anti-NMDAR encephalitis; patient, tramadol 100 mg enterally three times a day, one hour before each of five PLEX sessions): resolved
- eye opening immediately following the first PLEX session (anti-NMDAR encephalitis; tramadol 100 mg enterally three times a day, one hour before each PLEX session): opened their eyes spontaneously
- absorption [1]: completely absorbed
- brain concentration versus plasma [1]: higher brain concentration than in plasma
- peak onset [1]: approximately 60 min
- patients with serious side effects (hypotension, circulatory collapse, pruritis, sleep disorders, somnolence, abdominal pain, tachycardia) [2]: less than 1%

— patent US10898451B2 (Board of Regents of the University of Texas System, priority 2018, dated 2021)
